Test systems include DLD-1 colon; HCC-2998 colon; K-562 leukemia; KM20L2 colon; MALME-3M melanoma; SN12C renal; UACC-257 melanoma; HCT-15 colon; SK-MEL-2 melanoma; BT-549 breast.
Common to all, as to experiment: NCI anticancer screen, dose series, 48 h

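1) Cells in 96-well plates. 2) Compound, 48 h, 5 concentrations. 3) Linear interpolation between surrounding doses. 4) Unreached endpoint = highest concentration. At the GI50, growth is halved. TGI is the concentration that stops growth completely.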

With `Cc1ccc(N2C(=O)N(c3ccc(C)cc3)C3(SC=NN3C)C2=O)cc1` (stereo not drawn), the TGI in the test on DLD-1 colon, in the test with HCC-2998 colon, in the test on K-562 leukemia, with KM20L2 colon, in the test with MALME-3M melanoma and in the test on SN12C renal was over 100 µM in each case. This molecule showed a TGI in the test on UACC-257 melanoma of over 100 µM.
`N#Cc1c(-c2ccco2)cc(-c2ccc(N)cc2)[nH]c1=O`: the TGI with DLD-1 colon, in the test with HCC-2998 colon, with HCT-15 colon, in the test on K-562 leukemia, in the test with KM20L2 colon and in the test with MALME-3M melanoma was over 100 µM throughout. Besides, the TGI in the test with SN12C renal and in the test with UACC-257 melanoma was over 100 µM throughout.
On to `NCCN.O=C([O-])[O-].O=C([O-])[O-].[Co+3].[K+]`, for which the GI50 in the test with DLD-1 colon, in the test with HCT-15 colon, with K-562 leukemia, with KM20L2 colon, in the test with MALME-3M melanoma and in the test with SK-MEL-2 melanoma was over 100 µM each time. In addition, the GI50 in the test with SN12C renal and with UACC-257 melanoma was over 100 µM throughout. Moreover, the TGI in the test with DLD-1 colon, in the test on HCT-15 colon, in the test with K-562 leukemia, in the test on KM20L2 colon, with MALME-3M melanoma and in the test on SK-MEL-2 melanoma was over 100 µM each time. For the same molecule, the TGI in the test on SN12C renal and in the test on UACC-257 melanoma was over 100 µM in each case.
Regarding `NC(CCc1ncc(C(=O)O)s1)C(=O)O` (stereo not drawn), the TGI in the test with DLD-1 colon, in the test with HCC-2998 colon, with HCT-15 colon, with K-562 leukemia, in the test on MALME-3M melanoma and in the test with SN12C renal was over 100 µM throughout. In the test with UACC-257 melanoma, this molecule gave a TGI of over 100 µM.
On to `COC(=O)c1c[nH]cc1CCCCc1c[nH]cc1C(=O)OC`, for which the TGI with HCC-2998 colon, in the test on K-562 leukemia, with KM20L2 colon, in the test with MALME-3M melanoma, in the test with SK-MEL-2 melanoma and in the test with SN12C renal was over 100 µM each time. For the same molecule, the TGI in the test on UACC-257 melanoma is over 100 µM.
`CC(C)(C)OC(=O)N1C2CCCC23O[C@@H]1c1cc2c(cc1C3=O)OCO2` (stereo partly drawn): the TGI in the test on DLD-1 colon, in the test with K-562 leukemia, in the test with MALME-3M melanoma, in the test with SK-MEL-2 melanoma, in the test on SN12C renal and with UACC-257 melanoma was over 100 µM in each case.
Regarding `Cc1ccc2[c](c1)[Sn]([c]1ccccc1)([c]1ccccc1)[c]1cc(C)ccc1N2C`, the GI50 in the test on HCC-2998 colon is 26.4 µM; with HCT-15 colon it was 36.9 µM; in the test with KM20L2 colon it was over 100 µM; with MALME-3M melanoma, 31.8 µM; in the test with SK-MEL-2 melanoma, 11.2 µM; in the test with SN12C renal, over 100 µM. Besides, the GI50 in the test on UACC-257 melanoma was 57.8 µM. Also, the TGI with HCC-2998 colon is over 100 µM; in the test on HCT-15 colon, over 100 µM; in the test with KM20L2 colon, over 100 µM; in the test on MALME-3M melanoma, 90.7 µM; with SK-MEL-2 melanoma it was 51.9 µM; in the test on SN12C renal, over 100 µM. The molecule further showed a TGI in the test with UACC-257 melanoma of over 100 µM.
Take `Cc1ccc(C)c(N2C(=O)C(=O)C(c3nc4ccccc4o3)/C(=N/N)C2=O)c1` (stereo not drawn): the TGI in the test on DLD-1 colon, in the test on HCC-2998 colon, in the test with HCT-15 colon, with KM20L2 colon, with MALME-3M melanoma and in the test on SK-MEL-2 melanoma was over 100 µM in each case. The TGI in the test on SN12C renal and with UACC-257 melanoma was over 100 µM each time.
As to `C=CCC1(C)CCCCC1(O)CS(=O)c1ccccc1` (stereo not drawn), the TGI with DLD-1 colon, with HCC-2998 colon, with HCT-15 colon, in the test with KM20L2 colon, in the test on MALME-3M melanoma and in the test with SN12C renal was over 100 µM throughout. This molecule returned a TGI with UACC-257 melanoma of over 100 µM.
Regarding `CC1=NC(C)(COC(=O)C2(C)NC(C)(CO)CO2)COC1=O` (stereo not drawn), the TGI in the test with BT-549 breast, with HCC-2998 colon, in the test on HCT-15 colon, with K-562 leukemia, in the test on MALME-3M melanoma and in the test with SK-MEL-2 melanoma was over 100 µM throughout. The TGI in the test on SN12C renal and in the test with UACC-257 melanoma was over 100 µM throughout.
For the molecule `NCCCOc1cc2ccccc2cc1C(=O)NCCCOc1cc2ccccc2cc1C(=O)Nc1ccc(Cl)cc1O`, the GI50 is 1.85 µM with BT-549 breast; 0.992 µM in the test with HCC-2998 colon; 0.658 µM with HCT-15 colon; 0.262 µM in the test with K-562 leukemia; 1.48 µM with MALME-3M melanoma; 1.21 µM in the test on SK-MEL-2 melanoma. In addition, the GI50 with SN12C renal is 1.73 µM; with UACC-257 melanoma, 1.23 µM. Moreover, the TGI with BT-549 breast was found to be 3.6 µM; in the test with HCC-2998 colon, 2.48 µM; in the test with HCT-15 colon, 2.32 µM; with K-562 leukemia, 1.02 µM; with MALME-3M melanoma, 3.5 µM; in the test on SK-MEL-2 melanoma, 2.91 µM. In addition, the TGI came to 3.83 µM with SN12C renal and 2.59 µM in the test with UACC-257 melanoma.
Regarding `CCc1nc(Cl)c(Cl)c(Cl)n1`, the TGI with BT-549 breast, with HCC-2998 colon, in the test with HCT-15 colon, with K-562 leukemia, in the test with MALME-3M melanoma and with SK-MEL-2 melanoma was over 100 µM throughout. Further, the TGI with SN12C renal and with UACC-257 melanoma was over 100 µM each time.
As for `NC(N)=N/N=C(\N=Nc1ccccc1)c1ccc(Cl)cc1`, the GI50 in the test with BT-549 breast is 4.86 µM; with HCC-2998 colon, 2.14 µM; in the test on HCT-15 colon, 3.02 µM; in the test on K-562 leukemia, 1.2 µM; in the test on MALME-3M melanoma it was 4.68 µM; in the test on SK-MEL-2 melanoma, 3.79 µM. Besides, the GI50 in the test with SN12C renal is 4.65 µM; in the test on UACC-257 melanoma it was 2.42 µM. The TGI in the test on BT-549 breast turned out to be 19.2 µM; in the test with HCC-2998 colon, 4.68 µM; in the test on HCT-15 colon, 14.9 µM; in the test on K-562 leukemia it was 6.37 µM; with MALME-3M melanoma, 17.2 µM; in the test with SK-MEL-2 melanoma it was 13.1 µM. In addition, the TGI with SN12C renal came to 22.1 µM; in the test on UACC-257 melanoma it was 6.37 µM.

These data come from PubChem BioAssay (NCI).
